From US20040062842A1, “Green soybeans whose color is prevented from discoloring” (priority 2002, published 2004)

Legend:
[1] = Suppression of discoloration by immersing green soybeans in aqueous solutions of anti-oxidation materials; set-up: species or system green soybean; settings: green soybeans immersed in aqueous solutions, permeation into tissues under depressurization
Excerpt: A test for suppressing discoloration of a green color was made by immersing green soybeans in aqueous solutions of various anti-oxidation materials, such as ascorbic acid, tocopherol and carotenoids, thus causing the anti-oxidation materials to permeate into tissues under depressurization and to capture radicals inducing decomposition of chlorophyll.

[2] = Suppression of discoloration of a chlorophyll/ethanol solution preserved under illumination of light; settings: 10° C., 17 hours, 1600 Lux; for Suppression Effect (%): 0.01 M anti-oxidation material in chlorophyll/ethanol solution (25 μg/ml), absorbance at 640 nm, relative to control sample; for effect of retaining a green color against light: addition to chlorophyll/ethanol solution
Protocol: Next, to check the effect resulting when anti-oxidation materials permeated into tissues, particularly chloroplasts, of a living body, a test for suppressing discoloration of a green color was made by preparing a chlorophyll/ethanol solution including chlorophyll, dissolving each of various anti-oxidation materials in the solution, and preserving it under illumination of light. More specifically, 4 ml of the chlorophyll/ethanol solution was prepared by adding 25 μg of chlorophyll in 1 ml of ethanol, and each anti-oxidation material, i.e., 0.01 M of ascorbic acid (aqueous solution), 0.01 M of α-tochopherol (ethanol solution), and 0.01 M of β-carotene (ethanol solution), was dissolved in the chlorophyll/ethanol solution. After enclosing each test sample, the test sample was preserved at 10° C. for 17 hours under 1600 Lux. Then, a change in absorbance of the test sample at 640 nm between before and after the preservation was measured. A higher value of the absorbance at 640 nm means a larger amount of chlorophyll. In Table 1, “control sample” represents a sample in which water was added, and “suppression effect” represents a chlorophyll reduction rate of each test sample calculated on condition that a chlorophyll reduction rate of the control sample after the preservation under illumination of light was assumed to be 100.

| Molecule | effect of suppressing discoloration of a green color [1] | Suppression Effect (%) [2] | effect of retaining a green color against light [2] |
| --- | --- | --- | --- |
| O=C1O[C@H]([C@@H](O)CO)C(O)=C1O [Ascorbic acid aqueous solution, ascorbic acid] | hardly confirmed | 0% | – |
| Cc1c(C)c2c(c(C)c1O)CCC(C)(CCCC(C)CCCC(C)CCCC(C)C)O2 (stereo not drawn) [α-Tochopherol/ethanol solution, α-tochopherol] | – | 52.4% | apparent effect of retaining a green color against light was confirmed |
| CC1=C(/C=C/C(C)=C/C=C/C(C)=C/C=C/C=C(C)/C=C/C=C(C)/C=C/C2=C(C)CCCC2(C)C)C(C)(C)CCC1 [β-Carotene/ethanol solution, β-carotene] | – | 56.1% | apparent effect of retaining a green color against light was confirmed |
| tocopherol | hardly confirmed | – | – |
